Laboratory results: patent US20060089263A1, “2-Propenal and related enal compounds for controlling plant pests and weeds in soil” (priority 2004, published 2006)

Experiments:
Type in all cases: in vivo
[1] = tested on: reniform nematode (Rotylenchulus reniformis); experiment: Greenhouse nematicidal experiment, soil infested with reniform nematode; settings: for response patterns of nematodes to applications (reniform): compared with 2-propenal
Excerpt: (§1) The nematicidal properties of 2-propenal (CH2═CH—CHO; acrolein), 2-butenal (CH3—CH═CH—CHO; crotonaldehyde), and trans 2-pentenal (CH3—CH2—CH═CH—CHO) were studied in greenhouse experiments with soil severely infected with the reniform nematode (Rotylenchulus reniformis). The soil was collected from a cotton field and was a sandy loam with pH 6.2, organic matter content <1.0% and cation exchange capacity <10 meq/100 gms soil. The soil was mixed 50:50 by volume, with washed fine siliceous river sand and the mixture, here-from referred to as soil. The moist soil (50% field capacity) was apportioned in 1 Kg quantities contained in 4L polyethylene bags. The compounds were applied to the soil in the bags, and after thorough mixing the treated soil was transferred to 1 L capacity, 4-inch-diam. plastic (PVC) pots which were then covered with a polyethylene bag (1 mil) held tightly to the outside wall of the pot with a rubber band. The covered pots were placed on a greenhouse table and after 10 days the bags were removed and soil samples for nematode analyses were collected from each pot. The pots were planted with “Young” soybean (5 seed/pot.) Soybean plants were grown for 8 weeks when they were removed, soil samples taken for nematode analysis (salad bowl incubation technique), and data were collected on shoot height, and fresh weights of shoots and roots. The relative health of the root systems was determined using a subjective scale. […] Values between 1 and 5 represented intermediate degrees of damage. The roots were incubated to assess nematode populations in them.
(§2) Emulsifiable concentrates (EC's) were prepared for all three compounds containing 10% (w/w) emulsogen. The EC's were used to make aqueous emulsions containing 2.5% active ingredient; these emulsions were then used to deliver the compounds to soil. Each compound was delivered using the following rates: 0, 25, 50, 75, 100, 125, 150, 175, 200, 225, 250, 275, 300 mgs/kg soil. In every experiment there were 6 replications (pots) per treatment arranged in a randomized complete block design.
(§3) All data were analyzed according to standard procedures for analysis of variance. Fisher's Least Significant Differences (FLSD) were calculated when F values were significant and are included in the graphs. Curvilineal analyses were conducted according to standard procedures with the TableCurve 2D program.

microbivorous nematodes = experiment: Greenhouse nematicidal experiment, microbivorous nematodes in soil and roots; settings: for response patterns of nematodes to applications (microbivorous): compared with 2-propenal
Excerpt: as §1, §2, §3

"Young" soybean = experiment: Growth response of soybean plants in treated soil (greenhouse)
Excerpt: as §1, §2, §3

[2] = tested on: yellow nutsedge (Cyperus esculentus); experiment: Greenhouse herbicidal experiment, post-emergence; settings: applied post-emergence
Method: Herbicidal properties of the compounds were studied as described for experiments on nematicidal activities. The soil was from a cotton field with a silt loam soil from a cotton field with similar properties as the one used for the nematode experiments. It was infested with a variety of weeds and was artificially seeded with 5 yellow nutsedge tubercles/pot. Nutsedge plants and other weeds were grown for a month, and the pots were then treated with 2-propenal and covered with polyethylene bags for 10 days, when the bags were removed and weed counts taken at two weeks and one month after treatment. Rates used in these experiments were: 0, 100, 200, 300, 400, 500, 600, 700, and 800 mgs/kg soil.
as §3

tomato plant = experiment: Tomato plant growth study, vigor rating; parameters: key to TOMATO VIGOR 1-5SCALE: 1 = very little vigor, 5 = very vigorous
Excerpt: This example together with the data in Table 1 includes results of a study conducted to test the affects of acrolein on tomato plant growth. The first column in Table 1 includes, from left to right the treatment number, the treatment name, the rate of application, and the unit for that rate. The treatment name includes two separate treatment ingredients for each treatment number. The top name of each treatment name lists the test additive, and the bottom listing of the treatment name lists any additional herbicide applied in that particular treatment number. For example, in treatment number 5, methyl bromide was applied with a sandea herbicide. The rate and the rate unit headings, for this study, lists the amount of application of the treatment ingredients in pounds of active ingredients per acre (lb ai/a). Column 2 of Table 1 lists a vigor rating for each tomato plant on a scale of 1 to 5, wherein a 1 rating indicates a tomato plant with very little vigor, and a 5 rating indicates a very vigorous tomato plant. Column 2 lists vigor scale ratings for each treatment number taken on Aug. 17, 2005, and column 3 lists a vigor rating for each treatment taken on Aug. 25, 2005.

[3] = 0-300 mgs/kg soil, pre-plant samples
[4] = 50 mgs/kg soil equivalent to 100 lbs/A, pre-plant samples

## 2-butenal
[1]
  response patterns of nematodes to applications (reniform): very similar to those described for 2-propenal
Microbivorous nematodes
  response patterns of nematodes to applications (microbivorous): very similar to those described for 2-propenal

## 2-propenal
"Young" soybean; dosages above 50 mgs
  shoot height: gradual decline
  shoot weights: gradual decline
"Young" soybean; dosages higher than 175 mgs
  root weights: declined
"Young" soybean; dosages ≦50 mgs
  shoot height: Sharp increases
  shoot weights: Sharp increases
"Young" soybean; rates up to 175 mgs
  root weights: increased gradually
"Young" soybean; subjective scale 1 to 5, rates 25-300 mgs/kg soil
  root condition: improved by all but the highest dose
[2]
  doses resulting in practical elimination of the weed: ≥ 200 mgs/kgs soil
[1]; [3]
  populations of reniform nematodes in pre-plant samples: reduced exponentially
[1]; [4]
  reduction in populations of reniform nematodes: > 90%
Microbivorous nematodes; [3]
  populations of microbivorous nematodes in pre-plant samples: reduced exponentially
Microbivorous nematodes; 75 mg rate
  microbivorous populations at the end of the experiment: stimulated
Microbivorous nematodes; [4]
  reduction in populations of microbivorous nematodes: > 90%
Microbivorous nematodes; applications of ≦100 mgs/kg soil, soil and root samples
  microbivorous populations at the end of the experiment: recovered
Tomato plant; 17/Aug/05, DRIP 200 lb ai/a, no herbicide
  TOMATO VIGOR 1-5SCALE: 3.000
Tomato plant; 17/Aug/05, DRIP 200 lb ai/a, with SANDEA 0.25 lb ai/a
  TOMATO VIGOR 1-5SCALE: 3.000
Tomato plant; 17/Aug/05, DRIP 200 lb ai/a, with V-10142 0.25 lb ai/a
  TOMATO VIGOR 1-5SCALE: 3.000
Tomato plant; 17/Aug/05, DRIP 400 lb ai/a, no herbicide
  TOMATO VIGOR 1-5SCALE: 3.000
Tomato plant; 17/Aug/05, DRIP 400 lb ai/a, with SANDEA 0.25 lb ai/a
  TOMATO VIGOR 1-5SCALE: 2.750
Tomato plant; 17/Aug/05, DRIP 400 lb ai/a, with V-10142 0.25 lb ai/a
  TOMATO VIGOR 1-5SCALE: 3.000
Tomato plant; 17/Aug/05, DRIP 600 lb ai/a, no herbicide
  TOMATO VIGOR 1-5SCALE: 1.250
Tomato plant; 17/Aug/05, DRIP 600 lb ai/a, with SANDEA 0.25 lb ai/a
  TOMATO VIGOR 1-5SCALE: 1.500
Tomato plant; 17/Aug/05, DRIP 600 lb ai/a, with V-10142 0.25 lb ai/a
  TOMATO VIGOR 1-5SCALE: 2.250
Tomato plant; 17/Aug/05, INJECT 200 lb ai/a, no herbicide, listed as ACROLEIN
  TOMATO VIGOR 1-5SCALE: 4.250
Tomato plant; 17/Aug/05, INJECT 200 lb ai/a, no herbicide, listed as acrolein
  TOMATO VIGOR 1-5SCALE: 4.25
Tomato plant; 17/Aug/05, INJECT 200 lb ai/a, with SANDEA 0.25 lb ai/a
  TOMATO VIGOR 1-5SCALE: 4.000
Tomato plant; 17/Aug/05, INJECT 200 lb ai/a, with V-10142 0.25 lb ai/a
  TOMATO VIGOR 1-5SCALE: 4.000
Tomato plant; 17/Aug/05, INJECT 400 lb ai/a, no herbicide, listed as ACROLEIN
  TOMATO VIGOR 1-5SCALE: 4.000
Tomato plant; 17/Aug/05, INJECT 400 lb ai/a, no herbicide, listed as acrolein
  TOMATO VIGOR 1-5SCALE: 4.0
Tomato plant; 17/Aug/05, INJECT 400 lb ai/a, with SANDEA 0.25 lb ai/a
  TOMATO VIGOR 1-5SCALE: 3.000
Tomato plant; 17/Aug/05, INJECT 400 lb ai/a, with V-10142 0.25 lb ai/a
  TOMATO VIGOR 1-5SCALE: 4.000
Tomato plant; 17/Aug/05, INJECT 600 lb ai/a, no herbicide
  TOMATO VIGOR 1-5SCALE: 3.250
Tomato plant; 17/Aug/05, INJECT 600 lb ai/a, with SANDEA 0.25 lb ai/a
  TOMATO VIGOR 1-5SCALE: 3.250
Tomato plant; 17/Aug/05, INJECT 600 lb ai/a, with V-10142 0.25 lb ai/a
  TOMATO VIGOR 1-5SCALE: 3.250
Tomato plant; 25/Aug/05, DRIP 200 lb ai/a, no herbicide
  TOMATO VIGOR 1-5SCALE: 4.000
Tomato plant; 25/Aug/05, DRIP 200 lb ai/a, with SANDEA 0.25 lb ai/a
  TOMATO VIGOR 1-5SCALE: 3.750
Tomato plant; 25/Aug/05, DRIP 200 lb ai/a, with V-10142 0.25 lb ai/a
  TOMATO VIGOR 1-5SCALE: 3.850
Tomato plant; 25/Aug/05, DRIP 400 lb ai/a, no herbicide
  TOMATO VIGOR 1-5SCALE: 3.250
Tomato plant; 25/Aug/05, DRIP 400 lb ai/a, with SANDEA 0.25 lb ai/a
  TOMATO VIGOR 1-5SCALE: 3.500
Tomato plant; 25/Aug/05, DRIP 400 lb ai/a, with V-10142 0.25 lb ai/a
  TOMATO VIGOR 1-5SCALE: 3.250
Tomato plant; 25/Aug/05, DRIP 600 lb ai/a, no herbicide
  TOMATO VIGOR 1-5SCALE: 2.500
Tomato plant; 25/Aug/05, DRIP 600 lb ai/a, with SANDEA 0.25 lb ai/a
  TOMATO VIGOR 1-5SCALE: 2.500
Tomato plant; 25/Aug/05, DRIP 600 lb ai/a, with V-10142 0.25 lb ai/a
  TOMATO VIGOR 1-5SCALE: 2.900
Tomato plant; 25/Aug/05, INJECT 200 lb ai/a, no herbicide, listed as ACROLEIN
  TOMATO VIGOR 1-5SCALE: 4.750
Tomato plant; 25/Aug/05, INJECT 200 lb ai/a, no herbicide, listed as acrolein
  TOMATO VIGOR 1-5SCALE: 4.75
Tomato plant; 25/Aug/05, INJECT 200 lb ai/a, with SANDEA 0.25 lb ai/a
  TOMATO VIGOR 1-5SCALE: 4.750
Tomato plant; 25/Aug/05, INJECT 200 lb ai/a, with V-10142 0.25 lb ai/a
  TOMATO VIGOR 1-5SCALE: 4.750
Tomato plant; 25/Aug/05, INJECT 400 lb ai/a, no herbicide, listed as ACROLEIN
  TOMATO VIGOR 1-5SCALE: 5.000
Tomato plant; 25/Aug/05, INJECT 400 lb ai/a, no herbicide, listed as acrolein
  TOMATO VIGOR 1-5SCALE: 5.0
Tomato plant; 25/Aug/05, INJECT 400 lb ai/a, with SANDEA 0.25 lb ai/a
  TOMATO VIGOR 1-5SCALE: 4.250
Tomato plant; 25/Aug/05, INJECT 400 lb ai/a, with V-10142 0.25 lb ai/a
  TOMATO VIGOR 1-5SCALE: 4.650
Tomato plant; 25/Aug/05, INJECT 600 lb ai/a, no herbicide
  TOMATO VIGOR 1-5SCALE: 4.250
Tomato plant; 25/Aug/05, INJECT 600 lb ai/a, with SANDEA 0.25 lb ai/a
  TOMATO VIGOR 1-5SCALE: 4.000
Tomato plant; 25/Aug/05, INJECT 600 lb ai/a, with V-10142 0.25 lb ai/a
  TOMATO VIGOR 1-5SCALE: 3.750

## CC/C=C/C=O [2-pentenal, trans-2-pentenal]
[1]
  response patterns of nematodes to applications (reniform): very similar to those described for 2-propenal
Microbivorous nematodes
  response patterns of nematodes to applications (microbivorous): very similar to those described for 2-propenal

## CBr [METHYL BROMIDE 1, methyl bromide, reference compound]
Tomato plant; 17/Aug/05, 350 lb ai/a, no herbicide
  TOMATO VIGOR 1-5SCALE: 2.500
Tomato plant; 17/Aug/05, 350 lb ai/a, no herbicide, listed as METHYL BROMIDE 2
  TOMATO VIGOR 1-5SCALE: 2.250
Tomato plant; 17/Aug/05, 350 lb ai/a, with SANDEA 0.25 lb ai/a
  TOMATO VIGOR 1-5SCALE: 2.250
Tomato plant; 17/Aug/05, 350 lb ai/a, with SANDEA 0.25 lb ai/a, listed as METHYL BROMIDE 2
  TOMATO VIGOR 1-5SCALE: 2.500
Tomato plant; 17/Aug/05, 350 lb ai/a, with V-10142 0.25 lb ai/a
  TOMATO VIGOR 1-5SCALE: 2.000
Tomato plant; 17/Aug/05, 350 lb ai/a, with V-10142 0.25 lb ai/a, listed as METHYL BROMIDE 2
  TOMATO VIGOR 1-5SCALE: 2.500
Tomato plant; 25/Aug/05, 350 lb ai/a, no herbicide
  TOMATO VIGOR 1-5SCALE: 2.500
Tomato plant; 25/Aug/05, 350 lb ai/a, with SANDEA 0.25 lb ai/a
  TOMATO VIGOR 1-5SCALE: 2.750
Tomato plant; 25/Aug/05, 350 lb ai/a, with SANDEA 0.25 lb ai/a, listed as METHYL BROMIDE 2
  TOMATO VIGOR 1-5SCALE: 2.500
Tomato plant; 25/Aug/05, 350 lb ai/a, with V-10142 0.25 lb ai/a
  TOMATO VIGOR 1-5SCALE: 2.650
Tomato plant; 25/Aug/05, 350 lb ai/a, with V-10142 0.25 lb ai/a, listed as METHYL BROMIDE 2
  TOMATO VIGOR 1-5SCALE: 2.500
Tomato plant; 350 lb ai/a, no additional herbicide
  change in vigor scale rating over the term of the test: no change
